# Measurements published in patent US9777070B2, “Anti-PTK7 antibody-drug conjugates” (Pfizer Inc., priority 2014, dated 2017).
# Square brackets hold non-standard residues; d marks the D form. Peptide text beside a SMILES is read from it. * marks the point of attachment. Dolaproine = CO[C@@H]([C@@H]1CCCN1)[C@@H](C)C(=O)O; Dil = CC[C@H](C)[C@H](NC)[C@@H](CC(=O)O)OC; Doe = c1ccc(C[C@H](N*)c2nccs2)cc1; Aib = CC(C)(N)C(=O)O
# Key:
# H661 cells = assay: In vitro cytotoxicity, MTS, 4 days; format: cell-based; details: Homo sapiens, NCI-H661, 96 h
# Method: (§1) The cytotoxicity of the antibody-drug conjugate hu24-vc0101 was evaluated on cell lines that express the target PTK7. The engineered HEK293T-PTK7 over-expressing cell line was plated into a clear flat-bottom tissue culture plate (BD Falcon) at 500 cells per 180 μL of cell culture media per well. Human cancer cell lines were also tested in this assay and plated at a density that was previously determined to be optimal for each cell line according to their rate of growth (H661 1500 cells/well and H446 9600 cells/well in 150 μl). The cells were incubated overnight at 37° C. in a 5% CO2 incubator. On the following day, the hu24-vc0101 ADC and the 8.84 Ab-vc0101 ADC (negative control) were added to the cells on a 10 point concentration curve in triplicate samples starting with 3 or 10 μg/mL with 1:3 dilutions in cell culture media. The plate was incubated in a 37° C., 5% CO2 incubator for 4 days. The MTS assay (Promega CellTiter 96 Aqueous Non-Radioactive Cell Proliferation Assay) was used according to the supplier's instructions. 30 μL (H446, H661) or 40 μL (HEK293T-PTK7) of the combined MTS reagent was added to each well, and the plate was incubated in a 37° C., 5% CO2 incubator for 2 hours. The OD was determined at 490 nm with a 96-well plate reader. The average reading from wells with media alone was subtracted from the readings of wells with cells to control for background OD.
# H446 cells = assay: In vitro cytotoxicity, MTS, 4 days; format: cell-based; details: Homo sapiens, NCI-H446, 96 h
# Method: as §1
# H661 lung cancer cells = assay: Microtubule structure by anti-tubulin immunofluorescence; format: cell-based, human; details: 48 hours, ADC or mAb 0-4 μg/mL, free 0101 0.1-10 nM, FIG. 22
# Method: The cells were then fixed in 3% paraformaldehyde, washed with PBS, permeabilized with 0.5% Triton-X® (Sigma Chemical) in PBS, washed with PBS, and incubated with blocking buffer (5% normal goat serum and 0.2% Tween-20 in PBS). Cells were incubated with the primary anti-α-tubulin antibody (Sigma NoT9026, clone DM1A) in blocking buffer for 1 hour at room temperature. Afterwards, the cells were washed with PBS and incubated for 30 minutes with an Alexa Fluor® 488-conjugated secondary antibody (Invitrogen Corp) and 4′,6-diamidino-2-phenylindole (DAPI) to stain the DNA. The cells were visualized on a Zeiss LSM 510 Meta confocal microscope.
# [1] = test system: Breast-22 (BR22) TNBC PDX; assay: In vivo efficacy, PDX tumor growth; design: species or system human tumor in NOD/SCID mice; details: 20 mg/kg
# From the text: (§2) The effects of anti-PTK7 antibody-drug conjugates were further evaluated on the in vivo growth of human tumor patient-derived xenografts (PDX). Primary tumor resection samples were procured from clinical sites following Institutional Review Board for the Protection of Human Subjects approval and in accordance with HIPAA regulations. Tumor fragments were stored and shipped in Hypothermasol (Biolife Solutions) on ice and were embedded in Matrigel (BD) containing a proprietary mix of growth factors and implanted subcutaneously into the mammary fatpad of female NOD/SCID mice within 24 hours of resection. Mice were monitored for health status daily and for tumor growth initially by visual inspection twice per week. Once the tumors were palpable, measurements of tumor volume began to track tumor growth and estimate cell doubling time. Tumor volume was estimated using the equation V=(A*B^2)/2 where A is the long axis and B is the short axis. When tumors reached a volume of 500 mm^3 to 1,500 mm^3, they were harvested for study and for re-transplant as a patient-derived xenograft (PDX). Depending on the line, mechanical and/or chemical dissociation can be used to separate the individual cells for passage. Live cells were inoculated into naïve animals with 10,000 to 50,000 cells per animals
# (§3) For efficacy studies, tumors were harvested from passaging studies and cells were dissociated into single cell suspension. Preparations were counted for live cells using Trypan blue exclusion and 10,000 to 50,000 cells were inoculated per mouse in Matrigel. […] Tumor growth was initially followed by palpability with measurements beginning once tumor volumes reached about 30 mm^3. Studies were randomized based on tumor size once a cohort of tumor-bearing mice reached 140 mm^3 to 180 mm^3. Animals were dosed by intraperitoneal injection twice a week for two weeks (q4dx4). Study groups were followed until individual mice or entire group tumor measurements reached 1200 mm^3 when sacrifice was indicated in accordance with IACUC protocol. For selected dosing studies, pharmacokinetic submandibular bleeds were performed at 2 hours, 36 hours and 72 hours. A volume of 10 μL of blood was immediately pipetted into 90 μL of HBS-P (GE Healthcare). Samples were stored at −80° C. prior to analysis. For each tumor measurement the tumor volume±standard error of the mean (SEM) is provided. GT=Group Terminated due to large tumor size.
# (§4) Animals were dosed every four days for four cycles (Q4Dx4) by intraperitoneal injection except the BR5 study which was by intravenous injection on the same schedule. Tumor measurements were recorded one or two times per week using digital calipers and tumor volume was estimated using the equation V=(A×B^2)/2 where A is the long axis and B is the short axis. Animal body weights were measured and recorded at least once a week. Study groups were followed until individual mice or entire group tumor measurements reached 1200 mm^3 at which point sacrifice was indicated in accordance with IACUC protocol. For the BR5 study, animals were sacrificed once tumor volume approached 15% of the body weight at staging in accordance with IACUC protocol.
# (§5) Tumor growth inhibition (TGI) was calculated using the equation % TGI=[1−(mean tumor volume of treated)/(mean tumor volume of vehicle)]. […] Tumor regression was defined as a reduction in mean tumor volume after dosing. In cases where tumors regressed, Time To Progression (TTP) indicates the number of days between the first does and the time at which mean tumor volume increased from the previous measurement to a statistically significant degree.
# [2] = test system: Breast-31 (BR31) TNBC PDX; assay: In vivo efficacy, PDX tumor growth; design: species or system human tumor in NOD/SCID mice; details: 20 mg/kg
# From the text: as §2, §3, §4, §5
# [3] = test system: Breast-64 (BR64) TNBC PDX; assay: In vivo efficacy, PDX tumor growth; design: species or system human tumor in NOD/SCID mice; details: 20 mg/kg
# From the text: as §2, §3, §4
# Tumor growth inhibition (TGI) was calculated using the equation % TGI=[1−(mean tumor volume of treated)/(mean tumor volume of vehicle)]. TGI was calculated at the latest possible time point, which was typically the last measurement before the control group was discontinued as described above. Tumor regression was defined as a reduction in mean tumor volume after dosing. In cases where tumors regressed, Time To Progression (TTP) indicates the number of days between the first does and the time at which mean tumor volume increased from the previous measurement to a statistically significant degree.
# BR13 TNBC breast tumors = assay: Tumor-initiating cell (TIC) frequency by limit dilution analysis after in vivo treatment; design: species or system human tumor in mice; details: for # Animals with tumors: 20 mpk
# Method: To determine whether anti-PTK7 antibody-drug conjugate treatments reduced tumor-initiating cell (TIC) frequency in tumors, BR13 TNBC breast tumors were treated with 4 mg/kg hu24-vc0101 ADC, 4 mg/kg control IgG ADC, or 20 mg/kg docetaxel chemotherapy twice weekly for a total of 3 doses (Days 0, 3 & 7). Live, residual human tumor cells (i.e. hESA^+ mCD45^− mH-2Kd^−) were isolated from dissociated tumors at day 10 and re-implanted into naïve animals in a limit dilution analysis (LDA). Resulting tumor incidence was monitored for up to 40 weeks post-transplant. The day of tumor harvest (day 10) and serial transplantation was chosen based on when tumors were starting to regress following hu24-vc0101 exposure. Tumors were dissociated and stained with anti-human ESA, anti-mouse CD45, and anti-mouse H-2Kd antibodies. Three tumors per treatment group were pooled, and live human tumor cells were sorted by flow cytometry. Groups of 10 mice were injected with either 293, 73, 37 or 15 tumor cells sorted from control IgG ADC treated tumors; 159, 90, 40 or 10 tumor cells sorted from hu24-vc0101 treated tumors; or 257, 33 or 15 tumor cells sorted from docetaxel-treated tumors. Tumors in recipient mice were measured weekly and tumors that exceeded 200 mm^3 in recipient mice were scored as positive. Using Poisson distribution statistics, via L-Calc software (Stemcell Technologies, Vancouver, BC), injected cell doses of recipients with and without tumors by 40 weeks post-transplant were used to calculate the frequency of TIC after each treatment.
compound,measurement,setting,value
"CC[C@H](C)[C@@H]([C@@H](CC(=O)N1CCC[C@H]1[C@H](OC)[C@@H](C)C(=O)N[C@@H](Cc1ccccc1)c1nccs1)OC)N(C)C(=O)[C@@H](NC(=O)C(C)(C)N)C(C)C [compound 0101, 2-methylalanyl-N-[(3R,4S,5S)-3-methoxy-1-{(2S)-2-[(1R,2R)-1-methoxy-2-methyl-3-oxo-3-{[(1S)-2-phenyl-1-(1,3-thiazol-2-yl)ethyl]amino}propyl]pyrrolidin-1-yl}-5-methyl-1-oxoheptan-4-yl]-N-methyl-L-valinamide] (H-[Aib]V[Dil][Dolaproine]-Doe)",IC50,H661 cells,0.33 ng/mL
same,IC50,H446 cells,0.59 ng/mL
same,effect on microtubule structure and cell cycle,H661 lung cancer cells,disrupted microtubule structure and led to G2/M cell cycle arrest
"CC(=O)O[C@@]12CO[C@@H]1C[C@H](O)[C@@]1(C)C(=O)[C@H](O)C3=C(C)[C@@H](OC(=O)[C@H](O)[C@@H](NC(=O)OC(C)(C)C)c4ccccc4)C[C@@](O)([C@@H](OC(=O)c4ccccc4)[C@H]21)C3(C)C [docetaxel, reference compound]",tumor volume ± SEM,[1]; Day 0,182 ± 21 mm^3
same,tumor volume ± SEM,[1]; Day 7,154 ± 23 mm^3
same,tumor volume ± SEM,[1]; Day 14,107 ± 51 mm^3
same,tumor volume ± SEM,[1]; Day 21,218 ± 98 mm^3
same,tumor volume ± SEM,[1]; Day 28,418 ± 165 mm^3
same,tumor volume ± SEM,[1]; Day 35,1191 ± 264 mm^3
same,tumor volume ± SEM,[2]; Day 0,259 ± 47 mm^3
same,tumor volume ± SEM,[2]; Day 7,331 ± 70 mm^3
same,tumor volume ± SEM,[2]; Day 14,371 ± 82 mm^3
same,tumor volume ± SEM,[2]; Day 21,451 ± 91 mm^3
same,tumor volume ± SEM,[2]; Day 28,510 ± 103 mm^3
same,tumor volume ± SEM,[2]; Day 35,614 ± 117 mm^3
same,tumor volume ± SEM,[2]; Day 42,790 ± 117 mm^3
same,tumor volume ± SEM,[2]; Day 49,837 ± 126 mm^3
same,tumor volume ± SEM,[2]; Day 63,1131 ± 148 mm^3
same,tumor volume ± SEM,[2]; Day 70,1317 ± 182 mm^3
same,tumor volume ± SEM,[3]; Day 0,543 ± 46 mm^3
same,tumor volume ± SEM,[3]; Day 7,1112 ± 97 mm^3
same,tumor volume ± SEM,[3]; Day 14,1805 ± 206 mm^3
same,"TIC frequency, fold lower than in control IgG ADC treated tumors","BR13 TNBC breast tumors; BR13, 20 mg/kg, Days 0, 3 & 7, tumors harvested day 10, p=0.09",2.1 fold
same,# Animals with tumors,"BR13 TNBC breast tumors; Group C1, 257 cells implanted per animal, 9 animals in group",8
same,# Animals with tumors,"BR13 TNBC breast tumors; Group C2, 33 cells implanted per animal, 8 animals in group",1
same,# Animals with tumors,"BR13 TNBC breast tumors; Group C3, 15 cells implanted per animal, 6 animals in group",0
